Measurements: US9890202B2, “Peptides based on the transmembrane domain of a toll-like receptor (TLR) for treatment of TLR-mediated diseases” (Yeda Research and Development Co. Ltd., priority 2010, dated 2018)
Ends that are not written are not given here.

Assays:
XTT cytotoxicity assay = assay type: cell-based; conditions: mouse, RAW264.7 murine macrophages, RAW264.7 cells, 2 hours incubation, 0.78-100 μM, read-out: LC50 (Lethal Concentration at which 50% of cells die)
Method: 1×10^4 cells (RAW264.7 murine macrophages, ATCC® Number-TIB-71) per well were grown over night on a 96-well plate. The following day, the media were replaced with 90 μl fresh culture medium and 10 μl solution buffer containing different concentrations of the different peptides mTLR2 TM N′-CtoA (SEQ ID NO:88), mTLR2 TM C′-CtoA (SEQ ID NO:86), mTLR1 TM N′ (SEQ ID NO:77) and mTLR1 TM C′-CtoA (SEQ ID NO:83). Peptide concentrations range from 0.78-100 μM. The cells were then incubated for 2 hours before adding to each well 50 μl of 2,3-bis[2-methoxy-4-nitro-5-sulfophenyl]-2H-tetrazolium-5-carboxanilide inner salt (XTT) reaction solution (Biological Industries). Viability was determined as described previously (Papo et al., 2004 and Papo et al., 2006). The LC50 (the concentration at which 50% of the cells die) for each peptide was obtained from the dose-dependent cell viability curves.

TLR2 [1] = test: NFkB luciferase reporter in PC3 cells activated with LTA; assay type: cell-based, human; conditions: peptide 20 μM, LTA 50 μg/ml
Method: (§1) Cells were transfected with a luciferase plasmid under the transcriptional control of NFkB. Upon activation, NFkB trans-locates to the nucleus and induces the expression of luciferase. Cells were activated in the presence of LTA (50 μg/ml) or LPS (1 μg/ml) for 24 hours and were incubated for 2 hours with the hTLR2 TM C′ peptide (SEQ ID NO:83) ([…]) prior to the addition of the activator and washed twice with PBS. Detection of Luc expression was performed by the Steady-Glo assay kit.
(§2) The NFkB responsive element has been widely researched and is known to serve as a specific indication for the presence of the NFkB molecule inside the nucleus. Such a translocation occurs upon activation of the signaling cascade of TLRs, which leads to targeted transcription. This DNA element was introduced into a Luciferase expressing plasmid upstream to the gene thus generating a reporter plasmid for the presence of NFkB in the nucleus. Cells were transfected with the plasmid and 24 hours later were treated with LPS/LTA to induce the signaling cascade through TLR4 and TLR2, respectively. To validate activation, the levels of Luc expression were evaluated using the Steady-Glo kit (Promega) according to manufactures instructions.

PC3 cells = test: mRNA expression of TGFβ and VEGF in cells activated with LPS/LTA; assay type: cell-based, human; conditions: peptide 20 μM, LPS/LTA stimulation
Method: FIGS. 13A-B show mRNA expression of TGFβ (B) and VEGF (A) in LNCaP and PC3 cells in the absence or presence of LPS/LTA and the peptide hTLR2 TM C′ (SEQ ID NO:83) at a concentration of 20 μM.
One of the main features of metastatic cells is their ability to influence their environment due to the secretion of various cytokines. Two of the most influential cytokines are VEGF which induces the formation of blood vessels, and TGFβ which e.g. induces tolerance of immune cells and inhibits apoptosis. We therefore determined the expression of the mRNA of these cytokines in the cells upon their activation with LPS and LTA and the effect of the peptide on the activation. […] These findings lead us to the hypothesis that the presence of the TLRs on PC3 cells contribute to the severity (aggressiveness) of the cancer and its ability to form metastases. Thus, the TLR TM peptides of the invention can be used as new diagnostic biomarkers, which can indicate the rate of growth and the ability of the cells to form metastases.

LNCaP = test: Toxicity to LNCaP cell line; assay type: cell-based, human; conditions: up to 100 μM (maximal concentration tested)
Method: (§3) We synthesized peptides corresponding to either the N-terminus or C-terminus domains of the TM domains of human TLR1, 2 and 5. Each TM domain was divided into two overlapping sequences (Table 2). Activity and toxicity experiments were performed on a peptide corresponding to the C-terminus domain of the TM domain of human TLR2, including the adjacent 5 amino acids from the putative intracellular domain (SEQ ID NO:83, hTLR2-C in Table 2 below, extended with two lysine residues at each of its termini to increase solubility). The peptide was not toxic to either PC3 or LNCaP cell lines at a concentration of up to 100 μM (the maximal concentration tested, data not shown).

PC3 = test: Toxicity to PC3 cell line; assay type: cell-based, human; conditions: up to 100 μM (maximal concentration tested)
Method: as §3

TLR4 = test: NFkB luciferase reporter in PC3 cells activated with LPS; assay type: cell-based, human; conditions: peptide 20 μM, LPS 1 μg/ml
Method: as §1, §2

TLR2 [2] = test: Murine model of acute septic shock caused by LTA (TLR2 hyperactivation); assay type: in vivo, mice; conditions: during the whole experiment
Method: To examine the effect of TLR TM peptides on acute septic shock driven by TLR2 hyperactivation we have used a murine model as previously described (Meng et al., 2004). Briefly, 12 weeks old C57 Black female mice (supplied by Harlan) were treated with 100 μg of LTA injected IP in a saline solution (pH 6.5) containing 200 μg/ml of D-galactoseamine (Calbiochem). Treated mice received two injections of peptide at doses of 1, 5 and 10 mg/kg. First injection was given at the time of LTA injection, second injection was given 2 hrs (1 mg/kg) or 12 hrs (5 and 10 mg/kg) later. Animals were monitored for survival for 96 hours after LTA injection. Peptides used for in-vivo experiments were treated twice with 20% acetic acid in order to replace the trifluoroacetate anion added during HPLC purification. For all groups n=8.
In order to test the activity of our peptides in-vivo, we have used a murine model for acute septic shock caused by hyperactivation of TLR2. Mice were injected i.p. with 100 μg of LTA and then treated with mTLR2 TM C′-CtoA peptide (SEQ ID NO:86) in different regimes (see materials and methods section (xi)) or with saline only.

[3] = tested on: mTLR1 TM peptides (fluorescein labeled donors); test: FRET between fluorescein and rhodamine labeled TM peptides in PC:Cholesterol LUVs; assay type: binding, mouse; conditions: rhodamine conjugated acceptor added to fluorescein TLR1 TM donors
Method: Large unilamellar vesicles (LUVs) composed of phosphatidylcholine (PC) and cholesterol (10:1, w/w), were prepared using the extrusion method as described previously (Cohen et al, 2008). The fluorescence experiments were performed with pairs of peptides using fluorescein labeled peptides as donors and rhodamine labeled peptides as acceptors. Fluorescence spectra were obtained at room temperature, with excitation set at 494 nm (10 nm slit) and emission scan at 500-600 nm (10 nm slits), by a Cary eclipse fluorescence spectrophotometer (Varian Inc., Palo Alto, Calif.). In a typical experiment, a fluorescein labeled peptide was first added from a stock solution in DMSO (final concentration of 0.1 μM peptide and 0.25% (v/v) DMSO) to a solution containing PC:Cholesterol LUVs (100 μM) in HEPES buffer. This was followed by the successive addition of rhodamine labeled peptides to a final concentration ranging from 0.025 to 0.4 μM. Fluorescence spectra were obtained before and after the addition of the rhodamine labeled peptides. Fluorescence values were corrected by subtracting the changes in emission obtained by adding HEPES only. […]
Fluorescence Resonance Energy Transfer (FRET) analysis was used for exploring the interactions of the synthetic TM peptides within large unilameler vesicles (LUVs). […]

Substance: KKLILLVGALCHHFHGLWKK-NH2 [mTLR2 C′ TM, kkLILLVGALCHHFHGLWkk]
- CC50 at 2 h (XTT cytotoxicity assay): 50 µM

Substance: KKLILLTGVLCHRFHGLWKK-NH2 [hTLR2 TM C′]
- inhibition of Luc expression (TLR2 [1]): 40%
- levels of expression of TGFβ and VEGF mRNA (PC3 cells): drop in the levels of expression
- toxicity (LNCaP): not toxic
- toxicity (PC3): not toxic
- inhibition of activation (Luc expression) (TLR4): could not inhibit

Substance: KKLAVTGAFLCLYFDLPWKK-NH2 [mTLR1 C′ TM, kkLAVTGAFLCLYFDLPWkk]
- CC50 at 2 h (XTT cytotoxicity assay): > 100 µM

Substance: KKLILLVGALAHHFHGLWKK-NH2 [mTLR2 C′ TM (C to A)]
- CC50 at 2 h (XTT cytotoxicity assay): 50 µM
- adverse effects in treated mice (TLR2 [2]): no noticeable adverse effects

Substance: KKALVSGVAAALLLLILLVGKK-NH2 [mTLR2 N′ TM (C to A)]
- CC50 at 2 h (XTT cytotoxicity assay): > 100 µM

Substance: GLRILLLKV-NH2 (not fully specified; printed as GLRILLLKV-NH2) [Cp, the core TM peptide of TCRα, negative control]
- fluorescence signal decrease (FRET), negative control [3]: no significant fluorescence signal decrease

Substance: KKLAVTGAFLASYFDLPWKK-NH2 [mTLR1 C′ TM (C to A + L605S), kkLAVTGAFLASYFDLPWkk]
- CC50 at 2 h (XTT cytotoxicity assay): > 100 µM

Substance: KKLAVTGAFLALYFDLPWKK-NH2 [mTLR1 C′ TM (C to A)]
- CC50 at 2 h (XTT cytotoxicity assay): 50 µM

Substance: KKLLTVTIGATMLVLAVTGAKK-NH2 [mTLR1 N′ TM]
- CC50 at 2 h (XTT cytotoxicity assay): > 100 µM
